Reference: patent US12622956B2, “Methods and vaccines for inducing immune responses to multiple different MHC molecules” (Mayo Foundation for Medical Education and Research, priority 2015, dated 2026)
Ends that are not written are not given here.

Key:
Format in all cases: cell-based, human
T-cells = experiment: PBMC culture pulsed with long polypeptide, restimulation, intracellular cytokine (IFNγ) assay, healthy donors; design: key to Testing (confirmed immunogenicity in healthy donors): *: Represents polypeptides confirmed to be immunogenic in 4/4 healthy donors.; ¶: Represents polypeptides confirmed to be immunogenic in one healthy donor; conditions: for immunogenicity (frequency of antigen-specific T-cells): FIGS. 4C and 4D, unvaccinated HLA-A2.1+ healthy volunteers; for immune response by antigen specific IFNγ production: FIGS. 4C and D, CD4+ and CD8+ T cells, four healthy donors, background subtracted
Description: The SEA polypeptides, CMV long polypeptide, and VNTR polypeptide were tested in a culture system. Briefly, bulk peripheral blood mononuclear cells (PBMC) were thawed and exposed to GM-CSF on day 0 in culture. […] On day 2, media was washed out, and the cells were split 1:6 in fresh media containing IL-7 for T-cell expansion. Further splits occurred with simple addition of more media containing IL-7 depending upon acidity of the media between days 7-15. On day 16, an antigen specific restimulation of T-cell cultures was performed utilizing fresh PBMC as the antigen presenting cells. These fresh PBMC were thawed on day 14 and treated the same way as the initial culture on days 0-1, before being used on day 16. At the time of restimulation, an intracellular cytokine assay was performed. The T-cell cultures also were allowed to proliferate for an additional […] in media containing IL-7. At the end of culture, day 28, T-cells were further tested with a new intracellular cytokine assay utilizing fresh PBMC, prepared the same way as the PBMC used on day 16 for the first intracellular cytokine assay. Representative dot-plots for IFNγ levels are shown for the CMV pp65 polypeptide and the SEA2 polypeptide, with levels being much lower when T-cells were not restimulated with the same polypeptide they saw at the initiation of culture. […] Each data point represents the level of IFNγ after subtracting the levels of IFNγ from restimulation with irrelevant polypeptides or no polypeptide from levels when T-cells were restimulated with the original polypeptide.
The synthesized long peptides were individually pulsed onto GM+R848+LPS conditioned PBMC cultures established from unvaccinated HLA-A2.1+ healthy volunteers, then expanded in rhIL-7 or rhIL-7+rhIL-2. […] Proliferation of CD4+ and CD8^+ T-cells was indistinguishable, with both subsets retaining their initial proportionality during expansion.

MDA-MB-231.MUC1 = experiment: Cr51 release lysis by peptide-driven T-cells; conditions: T-cells from 3 donors; FIG. 6
Source text: T-cells from GM+R848+LPS conditioned PBMC driven by either SEA2 or SEA1 long peptides not only specifically recognized one or both of these sensitizing peptides at restimulation, but also preferentially lysed the HLA-A2.1+ human breast cancer line MDA-MB-231 transduced to express MUC1 (MDA-MB-231.MUC1) compared to MDA-MB-231.Neo control targets. […] Polyclonally driven T-cells from all 3 donors lysed MDA-MB-231.MUC1 indistinguishably from MDA-MB-231.Neo.

SEA1-specific T-cells = experiment: Effect of C-terminal amidation on sensitizing Ag-specific IFNγ T cells; conditions: FIG. 9; one healthy donor; versus SEA1 without C-terminal amidation
Source text: Amidated polypeptides were amidated at the C-terminus as described elsewhere (see, e.g., Brinckerhoff et al., Int. J. Cancer 83 (3): 326-34 (1999)).
A cocktail of peptides such as SEA1, SEA1-amide, acetyl-SEA1 and acetyl-SEA1-amide can be used to capture a broadened SEA1 response (or similarly for any other peptide).

Row | Substance | Testing (confirmed immunogenicity in healthy donors) (T-cells) | other results
1 | 3 (NRPALGSTAPPVHNVTSASGSASGSASTLV; immunogenic polypeptide) [compound 3] | */MUC1 | –
2 | 5 (STSPQLSTGVSFFFLSFHISNLQFNSSLEDPSTD; immunogenic polypeptide) [compound 5] | */MUC1 | –
3 | 6 (STDYYQELQRDISEMFLQIYKQGGFLGLSNIKFRPGSVV; immunogenic polypeptide) [compound 6] | */MUC1 | –
4 | 7 (VHDVETQFNQYKTEAASRYNLTISDVSVSDVPFP; immunogenic polypeptide) [compound 7] | */MUC1 | –
5 | 11 (LSFLQDIQEVQGYVLIAHNQVRQVPLQRL; immunogenic polypeptide) [compound 11] | ¶/HER2 | –
6 | 12 (AHNQVRQVPLQRLRIVRGTQLFEDNYALA; immunogenic polypeptide) [compound 12] | ¶/HER2 | –
7 | 13 (TEILKGGVLIQRNPQLCYQDTILWKDIFH; immunogenic polypeptide) [compound 13] | ¶/HER2 | –
8 | 14 (YQDTILWKDIFHKNNQLALTLIDTNRSRACHPC; immunogenic polypeptide) [compound 14] | ¶/HER2 | –
9 | 16 (NIQEFAGCKKIFGSLAFLPESFDGDP; immunogenic polypeptide) [compound 16] | ¶/HER2 | –
10 | 17 (VFETLEEITGYLYISAWPDSLPDLSV; immunogenic polypeptide) [compound 17] | ¶/HER2 | –
11 | 18 (DLSVFQNLQVIRGRILHNGAYSLTLQGLG; immunogenic polypeptide) [compound 18] | ¶/HER2 | –
12 | 20 (ELGSGLALIHHNTHLCFVHTVPW; immunogenic polypeptide) [compound 20] | ¶/HER2 | –
13 | 24 (IKRRQQKIRKYTMRRLLQETELVEPLTPS; immunogenic polypeptide) [compound 24] | ¶/HER2 | –
14 | 26 (GVGSPYVSRLLGICLTSTVQLVTQLM; immunogenic polypeptide) [compound 26] | ¶/HER2 | –
15 | 29 (DLAARNVLVKSPNHVKITDFG; immunogenic polypeptide) [compound 29] | ¶/HER2 | –
16 | 30 (DGGKVPIKWMALESILRRRFTHQS; immunogenic polypeptide) [compound 30] | ¶/HER2 | –
17 | 33 (SECRPRFRELVSEFSRMARDPQRFVVIQ; immunogenic polypeptide) [compound 33] | ¶/HER2 | –
18 | 57 (GVGSPYVSRLLGICLTSTVQLV; immunogenic polypeptide) [compound 57] | ¶/HER2 | –
19 | AHGVTSAPDTRPAPGSTAPPAHGV [VNTR, reference compound] | – | immunogenicity (frequency of antigen-specific T-cells) (T-cells): reproducibly less effective
20 | SPQLSTGVSFFFLSFHISNLQFNSSLEDPSTD [SEA1] | – | lysis of MDA-MB-231.MUC1 compared to MDA-MB-231.Neo control targets (MDA-MB-231.MUC1): significantly more; immunogenicity (frequency of antigen-specific T-cells) (T-cells): highly immunogenic; immune response by antigen specific IFNγ production (T-cells): consistently exhibited an immune response
21 | SPQLSTGVSFFFLSFHISNLQFNSSLEDPSTD-amide (SPQLSTGVSFFFLSFHISNLQFNSSLEDPSTD-NH2) [SEA1-amide, SEA1 amidated at the C-terminus] | – | SEA1-specific CD8+ T-cell response (SEA1-specific T-cells): less affected by amidation; sensitizing SEA1-specific CD4+ IFNγ-producing T-cells (SEA1-specific T-cells): far superior
22 | SQEPMSIYVYALPLKMLNIPSINVHHYP [SEQ ID NO: 1] | – | immunogenicity (frequency of antigen-specific T-cells) (T-cells): highly immunogenic; immune response by antigen specific IFNγ production (T-cells): consistently exhibited an immune response
23 | STDYYQELQRDISEMFLQIYKQGGFLGLSNIKFRPGSVV [SEA2] | – | lysis of MDA-MB-231.MUC1 compared to MDA-MB-231.Neo control targets (MDA-MB-231.MUC1): significantly more; immunogenicity (frequency of antigen-specific T-cells) (T-cells): highly immunogenic; immune response by antigen specific IFNγ production (T-cells): consistently exhibited an immune response
